# From patent publication US9181239B2, “Pyridopyrimidinone inhibitors of kinases” (AbbVie Inc., priority 2011, dated 2015)
# Target: T1, Wee1 kinase (Homo sapiens, UniProt P30291)
# T1 construct: purchased Carnabio 05-177
# Assay: Wee1 time-resolved fluorescence equilibrium binding assay (probe displacement)
# Conditions: GST-tagged-Wee1 kinase 2 nM, fluorescent probe 300 nM, 1 hour incubation; read-out: Wee-1 binding (Ki nM)
# Description: Wee1 kinase was assayed using a time-resolved fluorescence equilibrium binding assay monitoring displacement of a rapidly reversible Oregon Green-labeled ATP-competitive kinase probe (N-(2-(2-(2-(4-(4-(5-chloro-4-(2-(1-hydroxycyclobutyl)thiazol-5-yl)-1H-pyrrolo[2,3-b]pyridin-2-yl)phenyl)piperazin-1-yl)ethoxy)ethoxy)ethyl)-2′,7′-difluoro-3′,6′-dihydroxy-3-oxo-3H-spiro[isobenzofuran-1,9′-xanthene]-5-carboxamide) by competitive Wee1 inhibitors.
# T1 sequence (P30291 whole entry): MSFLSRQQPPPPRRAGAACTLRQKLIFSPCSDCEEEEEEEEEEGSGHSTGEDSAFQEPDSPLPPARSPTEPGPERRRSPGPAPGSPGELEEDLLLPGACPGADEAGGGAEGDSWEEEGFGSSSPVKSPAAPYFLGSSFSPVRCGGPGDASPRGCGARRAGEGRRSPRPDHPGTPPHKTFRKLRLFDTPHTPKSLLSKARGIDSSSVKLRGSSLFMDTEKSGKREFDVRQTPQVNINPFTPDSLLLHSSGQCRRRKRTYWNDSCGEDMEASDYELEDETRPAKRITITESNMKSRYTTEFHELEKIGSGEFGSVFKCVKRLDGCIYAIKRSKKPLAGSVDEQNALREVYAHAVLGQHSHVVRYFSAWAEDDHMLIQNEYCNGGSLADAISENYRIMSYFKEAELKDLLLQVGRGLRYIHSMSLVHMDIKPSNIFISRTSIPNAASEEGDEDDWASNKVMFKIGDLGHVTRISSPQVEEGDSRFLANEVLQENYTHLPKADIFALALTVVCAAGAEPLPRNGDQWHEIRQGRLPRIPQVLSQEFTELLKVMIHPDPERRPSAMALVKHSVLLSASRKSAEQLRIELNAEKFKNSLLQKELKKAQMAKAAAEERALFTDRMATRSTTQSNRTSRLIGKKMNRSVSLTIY
row,Ki [nM],SMILES
1,0.6,"CN1CCN(c2ccc(Nc3ncc4c(=O)c(-c5c(Cl)cccc5Cl)cn(C5CCC5)c4n3)cc2)CC1 [Example 15, 8-cyclobutyl-6-(2,6-dichlorophenyl)-2-{[4-(4-methylpiperazin-1-yl)phenyl]amino}pyrido[2,3-d]pyrimidin-5(8H)-one]"
2,0.4,"Cn1cc(-c2c(Cl)cccc2Cl)c(=O)c2cnc(Nc3ccc4c(c3)CC(N3CCCC3)C4)nc21 (stereo not drawn) [Example 55, 6-(2,6-dichlorophenyl)-8-methyl-2-{[2-(pyrrolidin-1-yl)-2,3-dihydro-1H-inden-5-yl]amino}pyrido[2,3-d]pyrimidin-5(8H)-one]"
3,0.3,"CN1Cc2cc(Nc3ncc4c(=O)c(-c5c(Cl)cccc5Cl)cn(C)c4n3)ccc2C(C)(C)C1 [Example 20, 6-(2,6-dichlorophenyl)-8-methyl-2-[(2,4,4-trimethyl-1,2,3,4-tetrahydroisoquinolin-7-yl)amino]pyrido[2,3-d]pyrimidin-5(8H)-one]"
4,0.7,"Cn1cc(-c2c(Cl)cccc2Cl)c(=O)c2cnc(Nc3ccc(N[C@@H]4CCNC4)cc3)nc21 [Example 63, 6-(2,6-dichlorophenyl)-8-methyl-2-({4-[(3R)-pyrrolidin-3-ylamino]phenyl}amino)pyrido[2,3-d]pyrimidin-5(8H)-one]"
5,0.6,"CN(C)C1Cc2ccc(Nc3ncc4c(=O)c(-c5c(Cl)cccc5Cl)cn(C)c4n3)cc2C1 (stereo not drawn) [Example 22, 6-(2,6-dichlorophenyl)-2-{[2-(dimethylamino)-2,3-dihydro-1H-inden-5-yl]amino}-8-methylpyrido[2,3-d]pyrimidin-5(8H)-one]"
6,0.8,"Cn1cc(-c2c(Cl)cccc2Cl)c(=O)c2cnc(Nc3ccc4c(c3)CNC4)nc21 [Example 49, 6-(2,6-dichlorophenyl)-2-(2,3-dihydro-1H-isoindol-5-ylamino)-8-methylpyrido[2,3-d]pyrimidin-5(8H)-one]"
7,0.8,"CN(C)CCN1CCN(c2ccc(Nc3ncc4c(=O)c(-c5c(Cl)cccc5Cl)cn(C)c4n3)cc2)CC1 [Example 79, 6-(2,6-dichlorophenyl)-2-[(4-{4-[2-(dimethylamino)ethyl]piperazin-1-yl}phenyl)amino]-8-methylpyrido[2,3-d]pyrimidin-5(8H)-one]"
8,0.7,"Cn1cc(-c2c(Cl)cccc2Cl)c(=O)c2cnc(Nc3ccc(N[C@H]4CC[C@H](N(C)C)CC4)cc3)nc21 [Example 76, 6-(2,6-dichlorophenyl)-2-[(4-{[trans-4-(dimethylamino)cyclohexyl]amino}phenyl)amino]-8-methylpyrido[2,3-d]pyrimidin-5(8H)-one]"
9,0.6,"CN1CCC(Nc2ccc(Nc3ncc4c(=O)c(-c5c(Cl)cccc5Cl)cn(C)c4n3)cc2)CC1 [Example 61, 6-(2,6-dichlorophenyl)-8-methyl-2-({4-[(1-methylpiperidin-4-yl)amino]phenyl}amino)pyrido[2,3-d]pyrimidin-5(8H)-one]"
10,0.4,"Cn1cc(-c2c(Cl)cccc2Cl)c(=O)c2cnc(Nc3ccc(NC4CCNCC4)cc3)nc21 [Example 66, 6-(2,6-dichlorophenyl)-8-methyl-2-{[4-(piperidin-4-ylamino)phenyl]amino}pyrido[2,3-d]pyrimidin-5(8H)-one]"
11,0.5,"CN1CCc2ccc(Nc3ncc4c(=O)c(-c5c(Cl)cccc5Cl)cn(C)c4n3)cc2C1 [Example 52, 6-(2,6-dichlorophenyl)-8-methyl-2-[(2-methyl-1,2,3,4-tetrahydroisoquinolin-7-yl)amino]pyrido[2,3-d]pyrimidin-5(8H)-one]"
12,0.3,"CN1Cc2cc(Nc3ncc4c(=O)c(-c5c(Cl)cccc5Cl)cn(C)c4n3)ccc2C2(CC2)C1 [Example 14, 6-(2,6-dichlorophenyl)-8-methyl-2-[(2′-methyl-2′,3′-dihydro-1′H-spiro[cyclopropane-1,4′-isoquinolin]-7′-yl)amino]pyrido[2,3-d]pyrimidin-5(8H)-one]"
13,0.5,"CN(C)C1CCN(C2Cc3ccc(Nc4ncc5c(=O)c(-c6c(Cl)cccc6Cl)cn(C)c5n4)cc3C2)CC1 (stereo not drawn) [Example 72, 6-(2,6-dichlorophenyl)-2-({2-[4-(dimethylamino)piperidin-1-yl]-2,3-dihydro-1H-inden-5-yl}amino)-8-methylpyrido[2,3-d]pyrimidin-5(8H)-one]"
14,0.5,"Cn1cc(-c2c(Cl)cccc2Cl)c(=O)c2cnc(Nc3ccc(N[C@H]4CC[C@@H](N(C)C)CC4)cc3)nc21 [Example 77, 6-(2,6-dichlorophenyl)-2-[(4-{[cis-4-(dimethylamino)cyclohexyl]amino}phenyl)amino]-8-methylpyrido[2,3-d]pyrimidin-5(8H)-one]"
15,0.8,"CN1Cc2cc(Nc3ncc4c(=O)c(-c5c(Cl)cccc5Cl)cn(C5CC5)c4n3)ccc2C(C)(C)C1 [Example 23, 8-cyclopropyl-6-(2,6-dichlorophenyl)-2-[(2,4,4-trimethyl-1,2,3,4-tetrahydroisoquinolin-7-yl)amino]pyrido[2,3-d]pyrimidin-5(8H)-one]"

# More lines, now with the values behind:
row,SMILES,Ki [nM]
1,"CN1CCN(C2Cc3ccc(Nc4ncc5c(=O)c(-c6c(Cl)cccc6Cl)cn(C)c5n4)cc3C2)CC1 (stereo not drawn) [Example 57, 6-(2,6-dichlorophenyl)-8-methyl-2-{[2-(4-methylpiperazin-1-yl)-2,3-dihydro-1H-inden-5-yl]amino}pyrido[2,3-d]pyrimidin-5(8H)-one]",0.9
2,"CN1CCN(c2ccc(Nc3ncc4c(=O)c(-c5c(Cl)cccc5Cl)cn(Cc5ccncc5)c4n3)cc2)CC1 [Example 12, 6-(2,6-dichlorophenyl)-2-{[4-(4-methylpiperazin-1-yl)phenyl]amino}-8-(pyridin-4-ylmethyl)pyrido[2,3-d]pyrimidin-5(8H)-one]",14
3,"CN1CCN(c2ccc(Nc3ncc4c(=O)c(-c5c(Cl)cccc5Cl)cn(-c5ccncc5)c4n3)cc2)CC1 [Example 7, 6-(2,6-dichlorophenyl)-2-{[4-(4-methylpiperazin-1-yl)phenyl]amino}-8-(pyridin-4-yl)pyrido[2,3-d]pyrimidin-5(8H)-one]",0.6
4,"CN1CCN(c2ccc(Nc3ncc4c(=O)c(-c5c(Cl)cccc5Cl)cn(C(C)(C)C)c4n3)cc2)CC1 [Example 28, 8-tert-butyl-6-(2,6-dichlorophenyl)-2-{[4-(4-methylpiperazin-1-yl)phenyl]amino}pyrido[2,3-d]pyrimidin-5(8H)-one]",19
5,"Cc1cc(Nc2ncc3c(=O)c(-c4c(Cl)cccc4Cl)cn(C)c3n2)ccc1N1CCCN(C)CC1 [Example 19, 6-(2,6-dichlorophenyl)-8-methyl-2-{[3-methyl-4-(4-methyl-1,4-diazepan-1-yl)phenyl]amino}pyrido[2,3-d]pyrimidin-5(8H)-one]",0.3
6,"CN1CCN(c2ccc(Nc3ncc4c(=O)c(-c5c(F)cccc5Cl)c[nH]c4n3)cc2)CC1 [Example 40, 6-(2-chloro-6-fluorophenyl)-2-{[4-(4-methylpiperazin-1-yl)phenyl]amino}pyrido[2,3-d]pyrimidin-5(8H)-one]",2.4
7,"Cn1cc(-c2c(Cl)cccc2Cl)c(=O)c2cnc(Nc3cc4c(s3)CCNC4)nc21 [Example 58, 6-(2,6-dichlorophenyl)-8-methyl-2-(4,5,6,7-tetrahydrothieno[3,2-c]pyridin-2-ylamino)pyrido[2,3-d]pyrimidin-5(8H)-one]",0.4
8,"CN(C)C1Cc2ccc(Nc3ncc4c(=O)c(-c5c(Cl)cccc5Cl)c[nH]c4n3)cc2C1 (stereo not drawn) [Example 41, 6-(2,6-dichlorophenyl)-2-{[2-(dimethylamino)-2,3-dihydro-1H-inden-5-yl]amino}pyrido[2,3-d]pyrimidin-5(8H)-one]",0.4
9,"O=c1c(-c2c(Cl)cccc2Cl)c[nH]c2nc(Nc3ccc4c(c3)CNCC43CC3)ncc12 [Example 43, 6-(2,6-dichlorophenyl)-2-(2′,3′-dihydro-1′H-spiro[cyclopropane-1,4′-isoquinolin]-7′-ylamino)pyrido[2,3-d]pyrimidin-5(8H)-one]",0.3
10,"Cn1cc(-c2c(Cl)cccc2Cl)c(=O)c2cnc(Nc3ccc4c(c3)C(=O)NC4=O)nc21 [Example 56, 5-{[6-(2,6-dichlorophenyl)-8-methyl-5-oxo-5,8-dihydropyrido[2,3-d]pyrimidin-2-yl]amino}-1H-isoindole-1,3(2H)-dione]",27
11,"CN1Cc2cc(Nc3ncc4c(=O)c(-c5c(Cl)cccc5Cl)cn(C5CC5)c4n3)ccc2C2(CC2)C1 [Example 17, 8-cyclopropyl-6-(2,6-dichlorophenyl)-2-[(2′-methyl-2′,3′-dihydro-1′H-spiro[cyclopropane-1,4′-isoquinolin]-7′-yl)amino]pyrido[2,3-d]pyrimidin-5(8H)-one]",0.2
12,"CN1CCN(c2ccc(Nc3ncc4c(=O)c(-c5c(Cl)cccc5Cl)cn(C5COC5)c4n3)cc2)CC1 [Example 27, 6-(2,6-dichlorophenyl)-2-{[4-(4-methylpiperazin-1-yl)phenyl]amino}-8-(oxetan-3-yl)pyrido[2,3-d]pyrimidin-5(8H)-one]",1.3
13,"COc1ccc(Cn2cc(-c3c(F)cccc3Cl)c(=O)c3cnc(Nc4ccc5c(c4)CN(C)CC54CC4)nc32)cc1 [Example 36, 6-(2-chloro-6-fluorophenyl)-8-(4-methoxybenzyl)-2-[(2′-methyl-2′,3′-dihydro-1′H-spiro[cyclopropane-1,4′-isoquinolin]-7′-yl)amino]pyrido[2,3-d]pyrimidin-5(8H)-one]",33
14,"CN1CCN(c2ccc(Nc3ncc4c(=O)c(-c5c(Cl)cccc5Cl)cn(-c5ccc(F)cc5)c4n3)cc2)CC1 [Example 9, 6-(2,6-dichlorophenyl)-8-(4-fluorophenyl)-2-{[4-(4-methylpiperazin-1-yl)phenyl]amino}pyrido[2,3-d]pyrimidin-5(8H)-one]",< 1
15,"CCn1cc(-c2c(Cl)cccc2Cl)c(=O)c2cnc(Nc3ccc4c(c3)CN(C)CC43CC3)nc21 [Example 32, 6-(2,6-dichlorophenyl)-8-ethyl-2-[(2′-methyl-2′,3′-dihydro-1′H-spiro[cyclopropane-1,4′-isoquinolin]-7′-yl)amino]pyrido[2,3-d]pyrimidin-5(8H)-one]",0.3
